In patent publication EP4316482A1, “LEVODOPA FOR PREVENTING ADDICTION” (4P-Pharma, priority 2022, dated 2024):

Columns and labels:
Assay type in all cases: in vivo
C57B1/6J mice [1] = assay: Hyperactivity and behavioral sensitization induced by methylphenidate: distance travelled in drug sessions (Example 3); conditions: male mice, IP; methylphenidate 3 mg/kg, levodopa (carbidopa) 8,5(0,85) or 17(1,7) mg/kg; four 30 minutes drug sessions; n=9
Method: • Species / Strain: Mice / C57B1/6J • Gender / Number / Age: Male / 36 / 6-8 weeks at study initiation • Source: Janvier Labs, France
The Test items and vehicle were administered via intraperitoneal injections according to Table 4. Table 4 - Study design
Mice were subj ected to a behavioral test to evaluate their activity 30 minutes after treatment administration. Mice received an administration of vehicle and were placed in the apparatus (20 cm wide, 40 cm large, 40 cm high) for the habituation session (30 minutes). After, 4 drug sessions were performed on days 2, 4, 8 and 10 or on days 3, 5, 9 and 11. Mice were injected with one of the tested drugs (or vehicle) immediately before being placed in the box. Mice activity was then monitored during 30 minutes session after treatment administration, measuring: distance travelled in the compartment in the four sessions.

C57B1/6J mice [2] = assay: Observation of mice activity: methylphenidate-induced hyperactivity (Example 1); conditions: male mice, IP, methylphenidate 10 mg/kg, levodopa 17 mg/kg, 5 minutes session 15 minutes after treatment, Mean ± SEM, n=6; for horizontal activity: line crossings; for vertical activity: rearing or climbing
Method: • Species / Strain: Mice / C57B1/6J • Gender / Number / Age: Male / 24 / 8 weeks at study initiation • Source: Janvier Labs, France
The Test items and vehicle were administered via intraperitoneal injections according to Table 2. Table 2 - Study design
(§1) Mice were subj ected to a behavioral test to evaluate their activity 15 minutes after treatment administration (5 minutes session). Mice were acclimated to the surrounding for 15 minutes before the beginning of the test. At the appropriate time after treatment administration, mice (1 per cage) were placed in the middle of a polyethylene cage measuring 17 × 32 × 14 cm without stainless steel top grill (no access to food or drinking water), without bedding and with a line drawn at the bottom of the cage. Activity was then monitored during 5 minutes session at 15 minutes after treatment administration, measuring different parameters: • Horizontal activity: the number of times the mice crossed the line drawn at the bottom of the cage during the session was recorded to assess horizontal activity levels. • Vertical activity: the number of rearing or climbing was recorded to assess vertical activity levels.

C57B1/6J mice [3] = assay: Observation of mice activity: methylphenidate-induced hyperactivity, levodopa/carbidopa (Example 2); conditions: male mice, IP, methylphenidate 20 mg/kg, levodopa (carbidopa) 17(1,7) mg/kg, 5 minutes session 15 minutes after treatment, Mean ± SEM, n=6
Method: • Species / Strain: Mice / C57B1/6J • Gender / Number / Age: Male / 24 / 9 weeks at study initiation • Source: Janvier Labs, France
The Test items and vehicle were administered via intraperitoneal injections according to Table 3. Table 3 - Study design
as §1

C57B1/6J mice [4] = assay: Behavioral sensitization test for methylphenidate addiction/dependence (Example 4); conditions: methylphenidate 10 mg/kg, Mean ± SEM; for locomotor activity (total distance travelled) / horizontal activity: female and male mice, IP, levodopa/carbidopa 17/1.7 mg/kg; for locomotor activity (total distance travelled): 20 minutes session; for horizontal activity: line crossings
Method: • Species / Strain: Mice / C57B1/6J • Gender / Number / Age: Male / 30 / 9 weeks at study initiation and Female / 35 / 9 weeks at study initiation • Source: Janvier Labs, France
The Test items and vehicle were administered via intraperitoneal injections according to Table 5. Table 5 - Study design
Mice were subjected to a behavioral test to evaluate their activity after treatment or vehicle administration. Mice (1 per cage) were placed in the center of a polyethylene cage without stainless steel top grill (no access to food or drinking water), without bedding and with a line drawn at the bottom of the cage. First, mice were acclimated to the surrounding and video-recorded for 10 minutes before the beginning of the test to analyse the baseline motor activity (total distance travelled). Second, mice were injected with test item or vehicle and acclimated for another 5 minutes and activity was again monitored and video recorded during a 20 minutes session. The 10 minutes video containing basal activity and the 20 minutes video after treatment administration were analysed using the ezTracker-master software. Horizontal activity was also measured. It represents the number of times the mice crossed the line drawn at the bottom of the cage. Animals are submitted to 6 sessions (3 sessions/week on Monday, Wednesday and Friday). During session 1, all mice receive an administration of vehicle. During sessions 2-5, groups 1F/1M receive an injection of vehicle; groups 2F/2M receive methylphenidate injection, groups 3F/3M receive levodopa/carbidopa injection and groups 4F/4M receive levodopa/carbidopa and methylphenidate injections. And during session 6, all mice receive an administration of methylphenidate.

[5] = day 3, development of behavioral sensitization
[6] = day 10, development of behavioral sensitization

Structure (SMILES)	distance travelled during drug sessions (C57B1/6J mice [1])	horizontal activity (C57B1/6J mice [2]) [counts]	vertical activity (C57B1/6J mice [2]) [counts]	horizontal activity (C57B1/6J mice [3]; line crossings) [counts]	vertical activity (C57B1/6J mice [3]; rearing or climbing) [counts]	locomotor activity (total distance travelled) (C57B1/6J mice [4]; [5])	horizontal activity (C57B1/6J mice [4]; [5])	locomotor activity (total distance travelled) (C57B1/6J mice [4]; [6])	horizontal activity (C57B1/6J mice [4]; [6])	locomotor activity before treatment administration (baseline motor activity) (C57B1/6J mice [4]; experimental day 12, 10 minutes baseline session before injection, after chronic treatment, levodopa/carbidopa 17/1.7 mg/kg IP)
COC(=O)C(c1ccccc1)C1CCCCN1 (stereo not drawn) [methylphenidate, Methylphenidate]	increased the distance travelled during drug sessions compared to vehicle-treated group	49±11	42±16	62±24	59±10	127,39±38,76 meters	259,69±115,51 counts	185,70±41,44 meters	420,38±137,05 counts	28,35±7,43 meters
N[C@@H](Cc1ccc(O)c(O)c1)C(=O)O [levodopa, L-3,4-dihydroxyphenylalanine]		17±4	24±7							
